Laboratory results taken from EP3071301B1, “QUERCUS PLANT EXTRACT AS ACTIVE AGENT WITH SKIN ANTI-AGEING PROPERTIES AND COSMETIC COMPOSITIONS CONTAINING IT” (Charlois Cosmetiques, priority 2013, dated 2015).
Blank lines part the entries; values can stand above or below the compound they belong to.

How the values were obtained:
[1] = target: T1, hyaluronidase bovine (EC 3.2.1.35) (Bos taurus, UniProt Q2YDK3); experiment: Hyaluronidase enzymatic activity inhibition (Experiment B); assay type: biochemical
T1 sequence (Q2YDK3 36-553): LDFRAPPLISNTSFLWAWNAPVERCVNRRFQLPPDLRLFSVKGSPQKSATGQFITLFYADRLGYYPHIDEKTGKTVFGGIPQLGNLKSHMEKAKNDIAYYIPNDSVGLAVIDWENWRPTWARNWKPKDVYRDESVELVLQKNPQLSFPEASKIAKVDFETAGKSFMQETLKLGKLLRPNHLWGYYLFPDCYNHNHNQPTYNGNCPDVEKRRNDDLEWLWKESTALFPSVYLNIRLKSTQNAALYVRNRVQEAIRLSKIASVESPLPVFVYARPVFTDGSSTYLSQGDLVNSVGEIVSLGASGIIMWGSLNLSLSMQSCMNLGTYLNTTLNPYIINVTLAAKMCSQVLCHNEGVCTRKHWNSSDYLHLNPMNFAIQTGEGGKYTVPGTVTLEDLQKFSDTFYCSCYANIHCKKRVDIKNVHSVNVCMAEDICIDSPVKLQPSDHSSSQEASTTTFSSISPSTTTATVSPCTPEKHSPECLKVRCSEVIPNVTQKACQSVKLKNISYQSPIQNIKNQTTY
Method: L'enzyme est la hyaluronidase bovine (EC 3.2.1.35), préparée tampon phosphate de sodium / chlorure de sodium / BSA, pH 7, et utilisée à 10 U/ml.
Le substrat est l'acide hyaluronique, préparé en tampon phosphate de sodium à pH 5,35 et testé à […].
Les principes actifs selon l'invention et la référence (acide 6-O-palmitoylascorbique, noté APA, testé à 300 µg/ml) sont mis en présence de la hyaluronidase et pré-incubés pendant 10 min à 37 °C sous agitation. L'acide hyaluronique est ensuite ajouté et les mélanges réactionnels sont incubés à 37 °C pendant 2 h. Des conditions contrôles sont réalisées en parallèle en incubant les principes actifs ou la référence en présence du substrat mais en absence de l'enzyme (Contrôle sans enzyme) ou en incubant les principes actifs ou la référence seuls (Contrôle interférence). Il est également réalisé un témoin en incubant l'enzyme seule (Témoin).
La réaction enzymatique est ensuite stoppée par précipitation de l'acide hyaluronique avec une solution tampon contenant de l'albumine de sérum bovin (BSA) à pH 3,75. […] L'activité est inversement proportionnelle à la valeur de DO mesurée.
(§1) Chaque expérience est tripliquée.
(§2) Les résultats sont exprimés en pourcentage d'activité de la hyaluronidase et en pourcentage d'inhibition de l'activité de la hyaluronidase. […]

[2] = Hydrogen peroxide assay (Amplex Red Hydrogen Peroxide/Peroxidase kit); conditions: hydrogen peroxide; 50 µM; 30 min
Text: (§3) Le principe actif E2 conforme à l'invention est soumis au test suivant, à des concentrations de 0,1; 0,3; 0,5; 1; 3 % p/p (% en poids de principe actif à tester, par rapport au poids final de milieu contenant le principe actif).
L'essai est réalisé au moyen du kit de dosage Amplex® Red Hydrogen Peroxyde/Peroxydase Assay Kit (Molecular Probes®), dont le réactif 10-acétyl-3,7-dihydroxyphénoxazine est utilisé pour déterminer la quantité de peroxyde d'hydrogène présent. Le substrat non coloré réagit avec le peroxyde d'hydrogène (H2O2) dans un rapport stoechiométrique 1:1 pour produire de la résofurine hautement fluorescente. […]
Le principe actif selon l'invention et le BHA (3-tert-butyl-4-hydroxyanisole), en tant que témoin, à une concentration de 50 µM, sont incubés en présence d'H2O2, de réactif Amplex® Red et d'enzyme Horse Radish Peroxydase (HRP) pendant 30 min à température ambiante. Puis la fluorescence est mesurée, pour une longueur d'onde d'excitation de 540 nm et une longueur d'onde d'émission de 590 nm.
Des contrôles d'auto-fluorescence et d'absorption de fluorescence (quenching) sont aussi réalisés pour chaque concentration de principe actif selon l'invention et du témoin. Les contrôles d'absorption de fluorescence sont réalisés en incubant le peroxyde d'hydrogène (H2O2), le réactif Amplex® Redet l'enzyme HRP pendant 30 min. […]

MMP totales = experiment: Total matrix metalloprotease (MMP) activity inhibition, fluorogenic peptide; assay type: biochemical, humains
Text: Le principe actif E2 conforme à l'invention est soumis au test suivant, à des concentrations de 1 et 3 % p/p, selon le protocole décrit dans la publication de Sim et al., 2007, Arch Pharm Res, 30(3): 290-298.
Les MMP totales (obtenues selon un protocole standard à partir de surnageants de fibroblastes dermiques humains normaux, irradiés avec des UVB (20 mJ/cm^2)) sont traitées par le mélange inflammatoire acétate de phorbol myristate (PMA) et facteur de nécrose tumorale (TNFα).
Le substrat fluorescent est le peptide fluorogénique décrit dans la publication de Lee et al., 1999, Annals of the New York Academy of Sciences, 878: 635-637, et commercialisé sous la référence M6412 par la société Sigma-Aldrich.
Le principe actif E2 conforme à l'invention ou le témoin (O-phénantroline testée à 0,03; 0,1; 0,3 et 1 mM) sont préincubés pendant 10 min sur glace en présence des MMP totales activées, puis le substrat fluorescent est ajouté. Les plaques ont été incubées pendant 3h à 37°C. Un contrôle d'interférence du composé (composé en présence du mélange réactionnel sans enzyme) et un contrôle « quenching » (mélange réactionnel contenant le substrat et l'enzyme dans lequel le composé n'est ajouté qu'en fin d'incubation) ont été réalisés en parallèle. Le contrôle […] permet de vérifier l'absorption non spécifique de la fluorescence par le composé et donc la spécificité de l'inhibition observée dans la condition test correspondante.
as §1
A la fin de l'incubation, la fluorescence produite suite à la dégradation du substrat est mesurée par fluorimétrie pour une longueur d'onde d'excitation de 328 nm et une longueur d'onde d'émission de 393 nm, au moyen du dispositif SpectroMax Gemini, Molecular Devices.
Le % d'inhibition des MMPs totales est calculé pour chaque échantillon testé. Les résultats obtenus sont montrés dans le tableau 6 ci-après. Tableau 6 - Inhibition de l'activité des MMP totales par le principe actif E2 conforme à l'invention

[3] = target: T2, hyaluronidase (EC 3.2.1.35) (Bos taurus, UniProt Q2YDK3); experiment: Hyaluronidase activity inhibition (Experiment A); assay type: biochemical
T2 sequence (Q2YDK3 36-553): T1 sequence (Q2YDK3 36-553)
Text: as §3
Le substrat est l'acide hyaluronique, testé à 0,04 % en tampon phosphate de sodium.
L'enzyme est la hyaluronidase (EC 3.2.1.35) testée à 10 U/ml en tampon phosphate de sodium / chlorure de sodium / BSA.
Le principe actif selon l'invention et les témoins (vitamine C à 10 mg/l et palmitate d'ascorbyle à 200 µg/ml) sont mis en présence de la hyaluronidase et incubés pendant 10 min à 37 °C sous agitation. L'acide hyaluronique est ensuite ajouté et les mélanges réactionnels sont incubés à 37 °C pendant 2 h. Des conditions contrôles additionnelles sont réalisées en incubant le produit et le substrat en l'absence de l'enzyme, ou en incubant le produit seul correspondant à un contrôle interférence. La réaction enzymatique est ensuite stoppée par précipitation de l'acide hyaluronique avec une solution d'albumine de sérum bovin (BSA). L'absorption (DO) à 540 nm est mesurée à l'aide d'un lecteur de microplaques (ThermoMax, Molecular Devices).
as §1, §2

inhibition at 300 µg/mL [1]: 79%
activity at 300 µg/mL ([1]; read-out: Activité hyaluronidase (%)): 21%
SMILES: CCCCCCCCCCCCCCCC(=O)OC[C@H](O)[C@H]1OC(=O)C(O)=C1O [APA, acide 6-O-palmitoylascorbique]

SMILES: COc1ccc(O)c(C(C)(C)C)c1 [BHA, 3-tert-butyl-4-hydroxyanisole]
% inhibition [2]: 60%

SMILES: c1cnc2c(c1)ccc1cccnc12 [O-Phénanthroline]
% inhibition (MMP totales; 0,1 mM, 100 µM): 15%
% inhibition (MMP totales; 0,03 mM, 30 µM): 1%
% inhibition (MMP totales; 0,3 mM, 300 µM): 73%
% inhibition (MMP totales; 1 mM): 97%

inhibition at 200 µg/mL ([3]; 200 µg/ml): 80%
SMILES: CCCCCCCCCCCCCCCC(=O)OC[C@H](O)[C@H]1OC(=O)C(O)=C1O [Palmitate d'ascorbyle, palmitate d'ascorbyle]

inhibition at 10000 µg/mL ([3]; 10 mg/ml): 71%
SMILES: O=C1O[C@H]([C@@H](O)CO)C(O)=C1O [Vitamine C]
